Experiments:
[1] = Participant disposition: completion, discontinuation and reasons; assay type: in vivo, human
Text: Participants that met the criteria for a LOAC, at any time during the randomized IMP treatment phase, were to (be): • Discontinue early from IMP treatment, • Evaluated and receive treatment by the Investigator with standard of care according to standard medical practice. If practicable and safe, the participant was to undergo EOT Visit (Visit 14) assessment prior to the administration of rescue medications. • Resume their individual prescreening ICS/LABA background therapy and, • Followed for safety during a 4-week Post IMP Treatment Period.
Participants who discontinued IMP treatment prior to completing the 12-week IMP treatment (due to LOAC or due to early treatment discontinuation), were to be evaluated as soon as possible at the individual participant's EOT Visit and using procedures as planned for the EOT Visit at Week 12 (Visit 14). At their EOT visit, participants were to resume their prescreening ICS/LABA background therapy or appropriate therapy as needed per treating physician were to be resumed after the EOT study assessments had been performed and entered the 4-week safety follow-up period/Post IMP Treatment Period, concluding with the EOS Visit (Visit 16).

[2] = healthy volunteers (N=51), even at supratherapeutic doses; cited from earlier work

For `CC(C)(C=C(C#N)C(=O)N1CCC[C@@H](n2nc(-c3ccc(Oc4ccccc4)cc3F)c3c(N)ncnc32)C1)N1CCN(C2COC2)CC1` (mixture of isomers) [rilzabrutinib, (R)-2-[3-[4-amino-3-(2-fluoro-4-phenoxy-phenyl)pyrazolo[3,4-d]pyrimidin-1-yl]piperidine-1-carbonyl]-4-methyl-4-[4-(oxetan-3-yl)piperazin-1-yl]pent-2-enenitrile], the “Status at last contact: Dead” value ([1]; 400 mg BID (N = 32)) was 0 n (%), the “permanent study intervention discontinuation: Adverse event” value ([1]; 400 mg BID (N = 32)) was 2 (6.3) n (%) and the “permanent study intervention discontinuation: Adverse event not related to COVID-19” value ([1]; 400 mg BID (N = 32)) was 2 (6.3) n (%). The “permanent study intervention discontinuation: Adverse event related to COVID-19” value ([1]; 400 mg BID (N = 32)) was 0 n (%), the “permanent study intervention discontinuation: Lack of efficacy” value ([1]; 400 mg BID (N = 32)) was 0 n (%) and the “permanent study intervention discontinuation: Loss of asthma control (LOAC)” value ([1]; 400 mg BID (N = 32)) was 8 (25.0) n (%). For the same compound, the “study discontinuation: Adverse event” value ([1]; 400 mg BID (N = 32)) was 1 (3.1) n (%), the “study intervention withdrawal by subject: Adverse event” value ([1]; 400 mg BID (N = 32)) was 1 (3.1) n (%) and the “Status at last contact: Dead” value ([1]; 400 mg TID (N = 64)) was 0 n (%). For the same compound, the “permanent study intervention discontinuation: Adverse event” value ([1]; 400 mg TID (N = 64)) was 5 (7.8) n (%), the “permanent study intervention discontinuation: Adverse event not related to COVID-19” value ([1]; 400 mg TID (N = 64)) was 2 (3.1) n (%) and the “permanent study intervention discontinuation: Adverse event related to COVID-19” value ([1]; 400 mg TID (N = 64)) was 3 (4.7) n (%). For the same compound, the “permanent study intervention discontinuation: Lack of efficacy” value ([1]; 400 mg TID (N = 64)) was 1 (1.6) n (%), the “permanent study intervention discontinuation: Loss of asthma control (LOAC)” value ([1]; 400 mg TID (N = 64)) was 10 (15.6) n (%) and the “study discontinuation: Adverse event” value ([1]; 400 mg TID (N = 64)) was 0 n (%). For the same compound, the “study intervention withdrawal by subject: Adverse event” value ([1]; 400 mg TID (N = 64)) was 2 (3.1) n (%) and the “effect on cardiac repolarization” value [2] was “does not exert clinically relevant effects on cardiac repolarization”.
